Measurements reported in article PMC12218921, “An adaptive peptide-binding site in ubiquitin receptor hRpn13 revealed by structural studies” (Nature Communications, 2025).
No end group written: not given here.

Columns and labels:
[1] = target: T1, hRpn13_ΔMTT (Homo sapiens, UniProt Q16186); experiment: 1H-15N HSQC NMR titration / chemical shift perturbation (CSP), 0.1 mM 15N-labeled hRpn13_ΔMTT with unlabeled peptide; format: binding
T1 construct: recombinant plasmid of hRpn13 Pru (1–150) cloned into the pRSET vector; GST (N, cleaved yes); residual Gly-Ser (^cG-^dS) left after cleavage; made in house; host or cells: Escherichia coli BL21 (DE3); pGEX-4T-1 plasmid synthesized by GenScript (Addgene 237412)
T1 sequence (Q16186 4-150, stated change not applied): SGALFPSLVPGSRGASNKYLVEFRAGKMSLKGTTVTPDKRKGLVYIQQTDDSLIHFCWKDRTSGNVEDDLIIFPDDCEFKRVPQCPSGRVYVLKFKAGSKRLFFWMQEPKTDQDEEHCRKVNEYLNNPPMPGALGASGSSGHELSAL
Method: The similar spectral effects by adding ENT or ENT_M1S is readily apparent by quantifying and plotting the shifting across the Pru amino acid sequence (Supplementary Fig. 10b, c).
All ^1H-^15N HSQC experiments were acquired on samples dissolved in NMR buffer (20 mM sodium phosphate, pH 6.5, 50 mM NaCl, 1 mM TCEP, 10% D2O) unless specified, in which case 2 mM DTT replaced TCEP. The samples were purified in DTT-containing buffer and then exchanged into NMR buffer by using Zeba Protein Desalting columns (Thermo Fisher Scientific). The pH was measured and adjusted to 6.5. All NMR experiments were performed at 25 °C on a Bruker Advance 600 MHz spectrometer equipped with a cryogenically cooled probe. The data were processed by NMRpipe[46] (version 11.5) and spectra visualized and analyzed with NMR-FAM-SPARKY[47] (version 3.190) by using previous chemical shift assignments[12],[23] and NMRbox[48]. The amide nitrogen and hydrogen chemical shift perturbations (CSP) were mapped for each amino acid according to Eq. 1.1 CSP=0.2ΔδN2+ΔδH2
ΔδH, change in amide proton value (in parts per million); ΔδN, change in amide nitrogen value (in parts per million).
Supplementary Figure 9: 2D NMR experiments indicate ENT binding to hRpn13 Pru. a) ^1H-^15N HSQC spectrum of 0.1 mM ^15N-labeled hRpn13 (1-150, black) or hRpn13_ΔMTT (green). Select residues are labeled with amino acids in the Pru helix, proteasome binding region, and termini in blue, purple, and orange, respectively. Arrows indicate direction of shifting. b, c) ^1H-^15N HSQC spectra of 0.1 mM of ^15N-labeled hRpn13_ΔMTT alone (black) or with ENT present at equimolar (red), 2-fold (orange), 5-fold (yellow), 10-fold (green), 15-fold (blue), or 20-fold (purple) molar excess. […] All spectra were acquired at 600 MHz and 25°C in 20 mM sodium phosphate, pH 6.5, 100 mM NaCl, 1 mM TCEP, 10% D2O. ppm, part per million.

[2] = target: T1, hRpn13_ΔMTT; experiment: Competition assay by fluorescence polarization (unlabeled peptide vs TAMRA-hRpn2 (940–953)); format: binding

## GPGSMTT [ENT]
[1]; 20-fold molar excess peptide
  CSP L11: 0.001342
  CSP L23: 0.004382
  CSP L33: 0.002
  CSP L46: 0.004899
  CSP L56: 0.002236
  CSP L73: 0.003493
  CSP L96: 0.001095
  CSP L105: 0.006017
  CSP L128: 0.003
  CSP L137: 0.002449
  CSP L147: 0.01114
  CSP L150: 0.003493
  CSP M31: 0.003131
  CSP M109: 0.01978
  CSP M133: 0.001095
  CSP N20: 0.002049
  CSP N68: 0.001095
  CSP N125: 0.002049
  CSP N129: 0.004025
  CSP N130: 0.001673
  CSP Q50: 0.003742
  CSP Q51: 0.004025
  CSP Q87: 0.003742
  CSP R16: 0.001095
  CSP R27: 0.001095
  CSP R43: 0.002191
  CSP R64: 0.004025
  CSP R92 backbone: 0.003131
  CSP R92 sidechain: 0.016
  CSP R104: 0.008112
  CSP R122: 0.01435
  CSP S4: 0.009602
  CSP S10: 0.001342
  CSP S15: 0.001342
  CSP S19: 0.001342
  CSP S32: 0.001342
  CSP S55: 0.002864
  CSP S66: 0.004472
  CSP S102: 0.002049
  CSP S140: 0.001342
  CSP S142: 0.002049
  CSP S143: 0.002236
  CSP S148: 0.003286
  CSP T36: 0.00882
  CSP T37: 0.003578
  CSP T39: 0.001342
  CSP T52: 0
  CSP T65: 0.001342
  CSP T114: 0.02379
  CSP V12: 0.002049
  CSP V24: 0.003715
  CSP V47: 0.008497
  CSP V69: 0.004494
  CSP V93: 0.004494
  CSP V95: 0.002683
  CSP V124: 0.0139
  CSP W61: 0.0278
  CSP W108: 0.005899
  CSP Y22: 0.01048
  CSP Y48: 0.003715
  CSP Y94: 0.00502
  CSP Y127: 0.00531
[1]; e.g. F76 and D78 amide signals
  effect at Pru-B-binding surface (HSQC): No effects were observed at the Pru-B-binding surface
[2]; 80 nM hRpn13_ΔMTT, 10 nM TAMRA-hRpn2 (940–953), N = 6
  concentration required to completely decrease the FP to background levels: > 3 mM
[2]; FP competition
  concentrations at which peptides can displace hRpn2 from hRpn13: > 0.5 mM
[2]; peer review file, FP competition with TAMRA-hRpn2 (940-953), read-out: IC50 (FP decreased to background levels)
  IC50: > 3 mM
